Data reported in patent publication US10689377B2 (Mirati Therapeutics, Inc., priority 2017, dated 2020).

Columns and labels:
KRas G12C [1] = target: KRas G12C (Homo sapiens, UniProt P01116, C118S/C51S/C80L/G12C); assay: KRas G12C Modification Assay (LCMS detection of covalent adduct); assay type: binding; conditions: normalized percent of control; 5 μM concentration for 3 hours
Outline: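 Intact protein analysed by LC/MS with deconvolution; unmodified protein signal normalized to no-compound control and reported as percent of control (POC).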

KRas G12C [2] = target: KRas G12C (Homo sapiens, UniProt P01116, G12C); assay: Cellular inhibition of KRas G12C measured by Phospho-ERK in NCI-H358 cells; assay type: cell-based; conditions: pERK(Thr202/Tyr204) normalized with GAPDH, NCI-H358 cells, 3 hours; read-out: IC50
Outline: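 NCI-H358 cells treated 3 h with compound (0.5% DMSO final), then fixed and methanol-permeabilised. In-cell immunofluorescence measured pERK(Thr202/Tyr204) normalised to GAPDH as percent of DMSO control. IC50 from a 4-parameter dose-response fit.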

Row | SMILES | POC (KRas G12C [1]) | IC50 (KRas G12C [2]) [nM]
1 | Cc1cccc2cccc(N3CCc4c(nc(OC[C@H]5CCCN5C)nc4N4CCN(C(=O)/C=C/CF)[C@@H](CC#N)C4)C3)c12 [Example 563, 2-[(2S)-1-[(E)-4-Fluorobut-2-enoyl]-4-[7-(8-methyl-1-naphthyl)-2-[[(2R)-1-methylpyrrolidin-2-yl]methoxy]-6,8-dihydro-5H-pyrido[3,4-d]pyrimidin-4-yl]piperazin-2-yl]acetonitrile] | C (“C”>50% POC) | 0.1 to 1000
2 | C=C(F)C(=O)N1CCN(c2nc(OCCCN3C[C@@H]4C[C@H]3CO4)nc3c2CCN(c2cccc4cccc(Cl)c24)C3)C[C@@H]1CC#N [Example 564, 2-[(2S)-4-[7-(8-Chloro-1-naphthyl)-2-[3-[(1S,4S)-2-oxa-5-azabicyclo[2.2.1]heptan-5-yl]propoxy]-6,8-dihydro-5H-pyrido[3,4-d]pyrimidin-4-yl]-1-(2-fluoroprop-2-enoyl)piperazin-2-yl]acetonitrile] | C (“C”>50% POC) | 0.1 to 1000
3 | Cc1cccc2cccc(N3CCc4c(nc(OCCCN5C[C@@H]6C[C@H]5CO6)nc4N4CCN(C(=O)/C=C/CF)[C@@H](CC#N)C4)C3)c12 [Example 565, 2-[(2S)-1-[(E)-4-Fluorobut-2-enoyl]-4-[7-(8-methyl-1-naphthyl)-2-[3-[(1S,4S)-2-oxa-5-azabicyclo[2.2.1]heptan-5-yl]propoxy]-6,8-dihydro-5H-pyrido[3,4-d]pyrimidin-4-yl]piperazin-2-yl]acetonitrile] | C (“C”>50% POC) | 0.1 to 1000
4 | C=C(F)C(=O)N1CCN(c2nc(OCCCN3C[C@@H]4C[C@H]3CO4)nc3c2CCN(c2cccc4cccc(C)c24)C3)C[C@@H]1CC#N [Example 566, 2-[(2S)-1-(2-Fluoroprop-2-enoyl)-4-[7-(8-methyl-1-naphthyl)-2-[3-[(1S,4S)-2-oxa-5-azabicyclo[2.2.1]heptan-5-yl]propoxy]-6,8-dihydro-5H-pyrido[3,4-d]pyrimidin-4-yl]piperazin-2-yl]acetonitrile] | C (“C”>50% POC) | 0.1 to 1000
5 | C=C(F)C(=O)N1CCN(c2nc(OC[C@@H]3CCCN3C)nc3c2CCN(c2cccc4cccc(CO)c24)C3)C[C@@H]1CC#N [Example 567, 2-[(2S)-1-(2-Fluoroprop-2-enoyl)-4-[7-[8-(hydroxymethyl)-1-naphthyl]-2-[[(2S)-1-methylpyrrolidin-2-yl]methoxy]-6,8-dihydro-5H-pyrido[3,4-d]pyrimidin-4-yl]piperazin-2-yl]acetonitrile] | C (“C”>50% POC) | > 1000
6 | C=C(F)C(=O)N1CCN(c2nc(OC[C@@H]3CCCN3)nc3c2CCN(c2cccc4cccc(C)c24)C3)C[C@@H]1CC#N [Example 568, 2-[(2S)-1-(2-Fluoroprop-2-enoyl)-4-[7-(8-methyl-1-naphthyl)-2-[[(2S)-pyrrolidin-2-yl]methoxy]-6,8-dihydro-5H-pyrido[3,4-d]pyrimidin-4-yl]piperazin-2-yl]acetonitrile] | C (“C”>50% POC) | 0.1 to 1000
7 | C=C(F)C(=O)N1CCN(c2nc(OC[C@@H]3CCCN3)nc3c2CCN(c2cccc4cccc(Cl)c24)C3)C[C@@H]1CC#N [Example 571, 2-((S)-4-(7-(8-Chloronaphthalen-1-yl)-2-((S)-pyrrolidin-2-ylmethoxy)-5,6,7,8-tetrahydropyrido[3,4-d]pyrimidin-4-yl)-1-(2-fluoroacryloyl)piperazin-2-yl)acetonitrile] | C (“C”>50% POC) | 0.1 to 1000
8 | C=C(F)C(=O)N1CCN(c2nc(OC[C@@H]3CCC(=O)N3C)nc3c2CCN(c2cccc4cccc(Cl)c24)C3)C[C@@H]1CC#N [Example 572, 2-[(2S)-4-[7-(8-Chloro-1-naphthyl)-2-[[(2S)-1-methyl-5-oxo-pyrrolidin-2-yl]methoxy]-6,8-dihydro-5H-pyrido [3,4-d]pyrimidin-4-yl]-1-(2-fluoroprop-2-enoyl)piperazin-2-yl] acetonitrile] | C (“C”>50% POC) | > 1000
9 | C=C(F)C(=O)N1CCN(c2nc(OC[C@@H]3C[C@@H](F)CN3C)nc3c2CCN(c2cccc4cccc(Cl)c24)C3)C[C@@H]1CC#N [Example 574, 2-[(2S)-4-[7-(8-Chloro-1-naphthyl)-2-[[(2S,4R)-4-fluoro-1-methyl-pyrrolidin-2-yl]methoxy]-6,8-dihydro-5H-pyrido[3,4-d]pyrimidin-4-yl]-1-(2-fluoroprop-2-enoyl)piperazin-2-yl] acetonitrile] | C (“C”>50% POC) | 0.1 to 1000
10 | C=C(F)C(=O)N1CCN(c2nc(OC[C@@H]3CCN(C)C3)nc3c2CCN(c2cccc4cccc(Cl)c24)C3)C[C@@H]1CC#N [Example 575, 2-[(2S)-4-[7-(8-Chloro-1-naphthyl)-2-[[(3R)-1-methylpyrrolidin-3-yl]methoxy]-6,8-dihydro-5H-pyrido[3,4-d]pyrimidin-4-yl]-1-(2-fluoroprop-2-enoyl)piperazin-2-yl]acetonitrile] | C (“C”>50% POC) | 0.1 to 1000
11 | C=C(F)C(=O)N1CCN(c2nc(OC[C@H]3C[C@@H](OC)CN3C)nc3c2CCN(c2cccc4cccc(Cl)c24)C3)C[C@@H]1CC#N [Example 576, 2-[(2S)-4-[7-(8-Chloro-1-naphthyl)-2-[[(2R,4R)-4-methoxy-1-methyl-pyrrolidin-2-yl]methoxy]-6,8-dihydro-5H-pyrido[3,4-d]pyrimidin-4-yl]-1-(2-fluoroprop-2-enoyl)piperazin-2-yl]acetonitrile] | C (“C”>50% POC) | 0.1 to 1000
12 | C=C(F)C(=O)N1CCN(c2nc(OC[C@@H]3C[C@@H](OC)CN3C)nc3c2CCN(c2cccc4cccc(Cl)c24)C3)C[C@@H]1CC#N [Example 577, 2-[(2S)-4-[7-(8-Chloro-1-naphthyl)-2-[[(2S,4R)-4-methoxy-1-methyl-pyrrolidin-2-yl]methoxy]-6,8-dihydro-5H-pyrido[3,4-d]pyrimidin-4-yl]-1-(2-fluoroprop-2-enoyl)piperazin-2-yl] acetonitrile] | C (“C”>50% POC) | 0.1 to 1000
13 | Cc1cccc2cccc(N3CCc4c(nc(OC[C@@H]5C[C@@H](F)CN5C)nc4N4CCN(C(=O)/C=C/CF)[C@@H](CC#N)C4)C3)c12 [Example 578, 2-[(2S)-1-[(E)-4-Fluorobut-2-enoyl]-4-[2-[[(2S,4R)-4-fluoro-1-methyl-pyrrolidin-2-yl]methoxy]-7-(8-methyl-1-naphthyl)-6,8-dihydro-5H-pyrido[3,4-d]pyrimidin-4-yl]piperazin-2-yl] acetonitrile] | C (“C”>50% POC) | 0.1 to 1000
14 | Cc1cccc2cccc(N3CCc4c(nc(OC[C@@H]5CCN(C)C5)nc4N4CCN(C(=O)/C=C/CF)[C@@H](CC#N)C4)C3)c12 [Example 581, 2-[(2S)-1-[(E)-4-fluorobut-2-enoyl]-4-[7-(8-methyl-1-naphthyl)-2-[[(3R)-1-methylpyrrolidin-3-yl]methoxy]-6,8-dihydro-5H-pyrido[3,4-d]pyrimidin-4-yl]piperazin-2-yl]acetonitrile] | C (“C”>50% POC) | 0.1 to 1000
15 | CN1C[C@H](F)C[C@H]1COc1nc2c(c(N3CCN(C(=O)/C=C/CF)[C@@H](CC#N)C3)n1)CCN(c1cccc3cccc(Cl)c13)C2 [Example 582, 2-((S)-4-(7-(8-Chloronaphthalen-1-yl)-2-(((2S,4R)-4-fluoro-1-methylpyrrolidin-2-yl)methoxy)-5,6,7,8-tetrahydropyrido[3,4-d]pyrimidin-4-yl)-1-((E)-4-fluorobut-2-enoyl)piperazin-2-yl)acetonitrile] | C (“C”>50% POC) | 0.1 to 1000
